Experiment [1] addresses Ba/F3(EGFR^Del19/T790M/C797S) cells (Homo sapiens, UniProt P00533, DEL746-750/T790M/C797S, cells depend on it). Description: Assay of activity on Ba/F3 cells (CTG, 72 h). In kind it is cell-based. As to conditions: read-out: IC50 (nM) Ba/F3 (EGFR^Del19/T790M/C797S). As to the method: (§1) (2) A compound stock solution was prepared, and then diluted 3× to obtain a compound dilution. 30 nL of the compound dilution was added to a 384-well plate by Echo (Labcyte, Echo550). The cells were incubated in an incubator at 37° C. and 5% CO2 for 72 h.
(§2) The percent inhibition rate (% inhibition) was calculated by the following formula
(§3) LUMcmpd: Luminescence value of assay compound.
(§4) LUMpositive: Average LUM value of positive drug at a concentration of 10 μM.
(§5) LUMvehicle. Average LUM value of negative control group without drug treatment.
(§6) The nonlinear regression curve (dose response-variable slope) between the value of inhibition rate (%) and the logarithm of compound concentration was fitted with graphpad prism 8.0, the effect dose curve of compound was drawn, and the IC50 value was calculated.
(§7) Y=Bottom+(Top−Bottom)/(1+1^((LogIC50−X)*HillSlope))
(§8) X-axis: logarithm of compound concentration; Y axis: inhibition rate ([…]).

The target of experiment [2] is Ba/F3(EGFR^L858R/T790M/C797S) cells (Homo sapiens, UniProt P00533, T790M/C797S/L858R, cells depend on it). Description: Assay of activity on Ba/F3 cells (CTG, 72 h). The experiment is classed as cell-based. As to conditions: read-out: IC50 (nM) Ba/F3 (EGFR^L858R/T790M/C797S). As for the experimental part: as §1, §2, §3, §4, §5, §6, §7, §8

We go through 17 compounds from patent US20220306659A1, “COMPOUND INHIBITING AND INDUCING DEGRADATION OF EGFR AND ALK” (BEIJING TIDE PHARMACEUTICAL CO., LTD., priority 2019, published 2022).

Ba/F3(EGFR^L858R/T790M/C797S) cells, sequence (P00533 whole entry T790M/C797S/L858R): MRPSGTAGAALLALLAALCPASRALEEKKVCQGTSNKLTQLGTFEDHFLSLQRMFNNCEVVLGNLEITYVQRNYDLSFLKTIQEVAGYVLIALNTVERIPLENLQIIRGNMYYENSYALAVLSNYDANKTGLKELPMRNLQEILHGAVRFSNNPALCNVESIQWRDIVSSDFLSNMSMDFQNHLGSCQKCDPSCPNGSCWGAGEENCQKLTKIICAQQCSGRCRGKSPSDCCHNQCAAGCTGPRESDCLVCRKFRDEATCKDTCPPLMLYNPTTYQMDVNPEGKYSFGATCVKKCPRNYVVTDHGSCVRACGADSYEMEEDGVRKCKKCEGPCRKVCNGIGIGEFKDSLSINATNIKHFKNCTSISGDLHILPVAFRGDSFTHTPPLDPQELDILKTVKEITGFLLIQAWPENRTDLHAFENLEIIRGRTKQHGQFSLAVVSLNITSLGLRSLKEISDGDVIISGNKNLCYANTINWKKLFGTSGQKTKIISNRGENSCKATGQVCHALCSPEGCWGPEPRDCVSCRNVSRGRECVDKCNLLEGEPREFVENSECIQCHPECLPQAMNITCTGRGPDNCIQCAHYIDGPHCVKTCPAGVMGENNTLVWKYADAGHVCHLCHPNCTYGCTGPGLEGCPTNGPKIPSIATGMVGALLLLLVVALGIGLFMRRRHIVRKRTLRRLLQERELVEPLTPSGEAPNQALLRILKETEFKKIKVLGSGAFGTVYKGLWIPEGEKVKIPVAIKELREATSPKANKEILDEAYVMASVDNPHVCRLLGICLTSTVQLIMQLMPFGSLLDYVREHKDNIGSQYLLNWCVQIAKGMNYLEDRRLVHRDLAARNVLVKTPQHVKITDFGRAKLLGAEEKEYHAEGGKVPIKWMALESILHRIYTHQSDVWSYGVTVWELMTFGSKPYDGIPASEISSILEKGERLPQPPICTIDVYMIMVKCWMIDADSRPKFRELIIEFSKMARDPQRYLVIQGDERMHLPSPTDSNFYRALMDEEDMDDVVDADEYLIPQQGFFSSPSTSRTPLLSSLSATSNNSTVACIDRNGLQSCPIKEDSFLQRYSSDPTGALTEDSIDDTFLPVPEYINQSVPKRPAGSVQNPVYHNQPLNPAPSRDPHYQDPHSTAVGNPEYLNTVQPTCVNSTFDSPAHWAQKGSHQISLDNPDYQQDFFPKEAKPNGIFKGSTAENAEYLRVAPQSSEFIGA
Ba/F3(EGFR^Del19/T790M/C797S) cells, sequence (P00533 with tags, fused parts or gaps DEL746-750/T790M/C797S): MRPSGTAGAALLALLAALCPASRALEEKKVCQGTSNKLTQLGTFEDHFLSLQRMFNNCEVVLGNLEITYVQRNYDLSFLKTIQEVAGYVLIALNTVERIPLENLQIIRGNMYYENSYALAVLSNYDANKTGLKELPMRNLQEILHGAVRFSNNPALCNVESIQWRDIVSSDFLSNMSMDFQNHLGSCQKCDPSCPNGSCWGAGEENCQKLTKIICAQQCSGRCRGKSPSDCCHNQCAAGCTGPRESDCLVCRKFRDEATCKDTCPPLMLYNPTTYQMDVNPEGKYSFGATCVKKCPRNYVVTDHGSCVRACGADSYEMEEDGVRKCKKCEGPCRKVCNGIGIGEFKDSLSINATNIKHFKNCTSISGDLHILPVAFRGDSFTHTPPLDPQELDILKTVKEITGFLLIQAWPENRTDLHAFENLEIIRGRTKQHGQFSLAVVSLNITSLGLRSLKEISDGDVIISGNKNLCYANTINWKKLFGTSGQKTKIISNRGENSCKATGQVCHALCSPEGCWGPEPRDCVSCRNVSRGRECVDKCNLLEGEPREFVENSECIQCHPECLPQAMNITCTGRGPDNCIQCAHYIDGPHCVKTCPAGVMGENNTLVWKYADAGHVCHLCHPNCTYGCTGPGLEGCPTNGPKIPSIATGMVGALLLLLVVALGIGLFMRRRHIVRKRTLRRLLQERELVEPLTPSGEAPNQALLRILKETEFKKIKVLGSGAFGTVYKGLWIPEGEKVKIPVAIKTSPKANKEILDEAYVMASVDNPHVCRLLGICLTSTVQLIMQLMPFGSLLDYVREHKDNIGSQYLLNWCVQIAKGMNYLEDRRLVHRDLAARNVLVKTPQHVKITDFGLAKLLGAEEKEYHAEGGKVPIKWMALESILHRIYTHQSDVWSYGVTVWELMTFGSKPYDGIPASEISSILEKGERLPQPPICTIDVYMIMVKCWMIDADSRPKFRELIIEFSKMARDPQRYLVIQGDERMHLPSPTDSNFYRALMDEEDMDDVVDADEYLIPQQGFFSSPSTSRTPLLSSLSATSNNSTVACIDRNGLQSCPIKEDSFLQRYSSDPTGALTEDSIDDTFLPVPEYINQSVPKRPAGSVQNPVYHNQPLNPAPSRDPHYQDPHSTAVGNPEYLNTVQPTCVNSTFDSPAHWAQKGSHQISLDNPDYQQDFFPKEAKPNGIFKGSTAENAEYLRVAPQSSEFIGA

For the compound `COc1cc(N2CCC(N3CCNCC3)CC2)ccc1Nc1ncc(Cl)c(Nc2ccccc2P(C)(C)=O)n1` [Compound A1-4, (2-((5-Chloro-2-((2-methoxy-4-(4-(piperazin-1-yl)piperidin-1-yl)phenyl)amino)pyrimidin-4-yl)amino)phenyl)dimethyl phosphorus oxide], the GI50 in experiment [1] and in experiment [2] was over 300 nM each time.
As to `COc1cc(N2CCC(N3CCN(CCCCCCCOC4CN(c5cccc6c5C(=O)N(C5CCC(=O)NC5=O)C6=O)C4)CC3)CC2)ccc1Nc1ncc(Cl)c(Nc2ccccc2P(C)(C)=O)n1` (stereo not shown) [Compound C150, 4-(3-((7-(4-(1-(4-((5-chloro-4-((2-(dimethylphosphoryl)phenyl)amino)pyrimidin-2-yl)amino)-3-methoxyphenyl)piperidin-4-yl)piperazin-1-yl)heptyl)oxy)azetidin-1-yl)-2-(2,6-dioxopiperidin-3-yl)isoindoline-1,3-dione], in experiment [2], the GI50 was over 300 nM.
`COc1cc(N2CCC(N3CCN(CCCCCn4cc(-c5cccc6c5CN(C5CCC(=O)NC5=O)C6=O)cn4)CC3)CC2)ccc1Nc1ncc(Cl)c(Nc2ccccc2P(C)(C)=O)n1` (stereo not shown) [Compound C162, 3-(4-(1-(5-(4-(1-(4-((5-chloro-4-((2-(dimethylphosphoryl)phenyl)amino)pyrimidin-2-yl)amino)-3-methoxyphenyl)piperidin-4-yl)piperazin-1-yl)pentyl)-1H-pyrazol-4-yl)-1-oxoisoindolin-2-yl)piperidine-2,6-dione]: the GI50 in experiment [1] and in experiment [2] was over 300 nM throughout.
For the compound `COc1cc(N2CCC(N3CCN(CCCCCC#Cc4c(F)ccc5c4CN(C4CCC(=O)NC4=O)C5=O)CC3)CC2)ccc1Nc1ncc(Cl)c(Nc2ccccc2P(C)(C)=O)n1` (stereo not shown) [Compound C166, 3-(4-(7-(4-(1-(4-((5-chloro-4-((2-(dimethylphosphoryl)phenyl)amino)pyrimidin-2-yl)amino)-3-methoxyphenyl)piperidin-4-yl)piperazin-1-yl)hept-1-yn-1-yl)-5-fluoro-1-oxoisoindolin-2-yl)piperidine-2,6-dione], the GI50 fell in the range of 1 to 100 nM in experiment [1] and 101 to 200 nM in experiment [2].
Consider `COc1cc(N2CCC3(CCN(CCOCC#Cc4cccc5c4CN(C4CCC(=O)NC4=O)C5=O)CC3)CC2)c(C)cc1Nc1ncc(Br)c(Nc2ccc3nccnc3c2P(C)(C)=O)n1` (stereo not shown) [Compound C174, 3-(4-(3-(2-(9-(4-((5-bromo-4-((5-(dimethylphosphoryl)quinoxalin-6-yl)amino)pyrimidin-2-yl)amino)-5-methoxy-2-methylphenyl)-3,9-diazaspiro[5.5]undecan-3-yl)ethoxy)prop-1-yn-1-yl)-1-oxoisoindolin-2-yl)piperidine-2,6-dione], for which the GI50 in experiment [1] and in experiment [2] was 1 to 100 nM throughout.
Turning to `COc1cc(N2CCC(N3CCN(CCCc4ccc(-c5ccc6c(c5)CN(C5CCC(=O)NC5=O)C6=O)cc4)CC3)CC2)ccc1Nc1ncc(Cl)c(Nc2ccccc2P(C)(C)=O)n1` (stereo not shown) [Compound C235, 3-(5-(4-(3-(4-(1-(4-((5-chloro-4-((2-(dimethylphosphoryl)phenyl)amino)pyrimidin-2-yl)amino)-3-methoxyphenyl)piperidin-4-yl)piperazin-1-yl)propyl)phenyl)-1-oxoisoindolin-2-yl)piperidine-2,6-dione], the GI50 in experiment [1] and in experiment [2] was 1 to 100 nM throughout.
For the compound `COc1cc(N2CCC(N3CCN(CCCCC#Cc4ccc(F)c5c4CN(C4CCC(=O)NC4=O)C5=O)CC3)CC2)ccc1Nc1ncc(Cl)c(Nc2ccccc2P(C)(C)=O)n1` (stereo not shown) [Compound C244, 3-(4-(6-(4-(1-(4-((5-chloro-4-((2-(dimethylphosphoryl)phenyl)amino)pyrimidin-2-yl)amino)-3-methoxyphenyl)piperidin-4-yl)piperazin-1-yl)hex-1-yn-1-yl)-7-fluoro-1-oxoisoindolin-2-yl)piperidine-2,6-dione], the GI50 in experiment [1] and in experiment [2] was 1 to 100 nM each time.
On to `COc1cc(N2CCC(N3CCN(CCCCCOc4cccc5c4CN(C4CCC(=O)NC4=O)C5=O)CC3)CC2)c(C)cc1Nc1ncc(Br)c(Nc2ccc3nccnc3c2P(C)(C)=O)n1` (stereo not shown) [Compound C246, 3-(4-((5-(4-(1-(4-((5-bromo-4-((5-(dimethylphosphoryl)quinoxalin-6-yl)amino)pyrimidin-2-yl)amino)-5-methoxy-2-methylphenyl)piperidin-4-yl)piperazin-1-yl)pentyl)oxy)-1-oxoisoindolin-2-yl)piperidine-2,6-dione], for which the GI50 in experiment [1] and in experiment [2] was 1 to 100 nM each time.
`COc1cc(N2CCC(N3CCN(CCCCC#Cc4cc(C#N)cc5c4CN(C4CCC(=O)NC4=O)C5=O)CC3)CC2)ccc1Nc1ncc(Cl)c(Nc2ccccc2P(C)(C)=O)n1` (stereo not shown) [Compound C259, 7-(6-(4-(1-(4-((5-chloro-4-((2-(dimethylphosphoryl)phenyl)amino)pyrimidin-2-yl)amino)-3-methoxyphenyl)piperidin-4-yl)piperazin-1-yl)hex-1-yn-1-yl)-2-(2,6-dioxopiperidin-3-yl)-3-oxoisoindoline-5-carbonitrile]: the GI50 in experiment [1] is 1 to 100 nM.
The same measure, in the same setting: for `COc1cc(N2CCC(N3CCN(CCCCCC#Cc4cc(C(F)(F)F)cc5c4CN(C4CCC(=O)NC4=O)C5=O)CC3)CC2)ccc1Nc1ncc(Cl)c(Nc2ccccc2P(C)(C)=O)n1` (stereo not shown) [Compound C267, 3-(4-(7-(4-(1-(4-((5-chloro-4-((2-(dimethylphosphoryl)phenyl)amino)pyrimidin-2-yl)amino)-3-methoxyphenyl)piperidin-4-yl)piperazin-1-yl)hept-1-yn-1-yl)-1-oxo-6-(trifluoromethyl)isoindolin-2-yl)piperidine-2,6-dione] the value was 1 to 100 nM.
In the case of `COc1cc(N2CCC(N3CCN(CCCCC#Cc4cc(C(F)(F)F)cc5c4CN(C4CCC(=O)NC4=O)C5=O)CC3)CC2)ccc1Nc1ncc(Cl)c(Nc2ccccc2P(C)(C)=O)n1` (stereo not shown) [Compound C268, 3-(4-(6-(4-(1-(4-((5-chloro-4-((2-(dimethylphosphoryl)phenyl)amino)pyrimidin-2-yl)amino)-3-methoxyphenyl)piperidin-4-yl)piperazin-1-yl)hex-1-yn-1-yl)-1-oxo-6-(trifluoromethyl)isoindolin-2-yl)piperidine-2,6-dione], in experiment [1], the GI50 lay within 1 to 100 nM.
Same read-out and setting: for `COc1cc(N2CCC(N3CCN(CCCC#Cc4cc(C(F)(F)F)cc5c4CN(C4CCC(=O)NC4=O)C5=O)CC3)CC2)ccc1Nc1ncc(Cl)c(Nc2ccccc2P(C)(C)=O)n1` (stereo not shown) [Compound C269, 3-(4-(5-(4-(1-(4-((5-chloro-4-((2-(dimethylphosphoryl)phenyl)amino)pyrimidin-2-yl)amino)-3-methoxyphenyl)piperidin-4-yl)piperazin-1-yl)pent-1-yn-1-yl)-1-oxo-6-(trifluoromethyl)isoindolin-2-yl)piperidine-2,6-dione] the value was 1 to 100 nM; for `COc1cc(N2CCC(N3CCN(CCCCCc4cccc5c4CN(C4CCC(=O)NC4=O)C5=O)CC3)CC2)c(C)cc1Nc1ncc(Br)c(Nc2ccc3nccnc3c2P(C)(C)=O)n1` (stereo not shown) [Compound C285, 3-(4-(5-(4-(1-(4-((5-bromo-4-((5-(dimethylphosphoryl)quinoxalin-6-yl)amino)pyrimidin-2-yl)amino)-5-methoxy-2-methylphenyl)piperidin-4-yl)piperazin-1-yl)pentyl)-1-oxoisoindolin-2-yl)piperidine-2,6-dione], 1 to 100 nM; for `COc1cc(N2CCC(N3CCN(CCCCCCc4cccc5c4CN(C4CCC(=O)NC4=O)C5=O)CC3)CC2)c(C)cc1Nc1ncc(Br)c(Nc2ccc3nccnc3c2P(C)(C)=O)n1` (stereo not shown) [Compound C286, 3-(4-(6-(4-(1-(4-((5-bromo-4-((5-(dimethylphosphoryl)quinoxalin-6-yl)amino)pyrimidin-2-yl)amino)-5-methoxy-2-methylphenyl)piperidin-4-yl)piperazin-1-yl)hexyl)-1-oxoisoindolin-2-yl)piperidine-2,6-dione], 1 to 100 nM.
For the compound `COc1cc(N2CCC3(CCN(CCCCCCc4cccc5c4CN(C4CCC(=O)NC4=O)C5=O)CC3)CC2)c(C)cc1Nc1ncc(Br)c(Nc2ccc3nccnc3c2P(C)(C)=O)n1` (stereo not shown) [Compound C299, 3-(4-(6-(9-(4-((5-bromo-4-((5-(dimethylphosphoryl)quinoxalin-6-yl)amino)pyrimidin-2-yl)amino)-5-methoxy-2-methylphenyl)-3,9-diazaspiro[5.5]undecan-3-yl)hexyl)-1-oxoisoindolin-2-yl)piperidine-2,6-dione], the GI50 in experiment [1] and in experiment [2] was 1 to 100 nM each time.
In the case of `COc1cc(N2CCC(N3CCN(CCCCc4cccc5c4CN(C4CCC(=O)NC4=O)C5=O)CC3)CC2)c(C)cc1Nc1ncc(Br)c(Nc2ccc3nccnc3c2P(C)(C)=O)n1` (stereo not shown) [Compound C301, 3-(4-(4-(4-(1-(4-((5-bromo-4-((5-(dimethylphosphoryl)quinoxalin-6-yl)amino)pyrimidin-2-yl)amino)-5-methoxy-2-methylphenyl)piperidin-4-yl)piperazin-1-yl)butyl)-1-oxoisoindolin-2-yl)piperidine-2,6-dione], in experiment [1], the GI50 was in the range of 1 to 100 nM.
Regarding `COc1cc(N2CCC3(CCN(CCCCc4cccc5c4CN(C4CCC(=O)NC4=O)C5=O)CC3)CC2)c(C)cc1Nc1ncc(Br)c(Nc2ccc3nccnc3c2P(C)(C)=O)n1` (stereo not shown) [Compound C302, 3-(4-(4-(9-(4-((5-bromo-4-((5-(dimethylphosphoryl)quinoxalin-6-yl)amino)pyrimidin-2-yl)amino)-5-methoxy-2-methylphenyl)-3,9-diazaspiro[5.5]undecan-3-yl)butyl)-1-oxoisoindolin-2-yl)piperidine-2,6-dione], the GI50 in experiment [1] lay within 1 to 100 nM.
